According to article PMC7265341, “Quantifying CDK inhibitor selectivity in live cells” (Nature Communications, 2020):
Like-named read-outs stand apart in the source and are kept apart here.

Tests used:
CDK13/Cyclin K = CDK13/Cyclin K (Homo sapiens, UniProt Q14004); experiment: NanoBRET live-cell target engagement, CDK13-NanoLuc/Cyclin K in HEK-293; type: binding; settings: CDK13/K, read-out: Inhibition at 10µM (%)
CDK11A/Cyclin L2 = target: T1, CDK11A/Cyclin L2 (Homo sapiens, UniProt Q9UQ88); experiment: NanoBRET live-cell target engagement, CDK11A-NanoLuc/Cyclin L2 in HEK-293; type: binding; settings: CDK11a/L2, read-out: Inhibition at 10µM (%)
T1 sequence (Q9UQ88 1-783): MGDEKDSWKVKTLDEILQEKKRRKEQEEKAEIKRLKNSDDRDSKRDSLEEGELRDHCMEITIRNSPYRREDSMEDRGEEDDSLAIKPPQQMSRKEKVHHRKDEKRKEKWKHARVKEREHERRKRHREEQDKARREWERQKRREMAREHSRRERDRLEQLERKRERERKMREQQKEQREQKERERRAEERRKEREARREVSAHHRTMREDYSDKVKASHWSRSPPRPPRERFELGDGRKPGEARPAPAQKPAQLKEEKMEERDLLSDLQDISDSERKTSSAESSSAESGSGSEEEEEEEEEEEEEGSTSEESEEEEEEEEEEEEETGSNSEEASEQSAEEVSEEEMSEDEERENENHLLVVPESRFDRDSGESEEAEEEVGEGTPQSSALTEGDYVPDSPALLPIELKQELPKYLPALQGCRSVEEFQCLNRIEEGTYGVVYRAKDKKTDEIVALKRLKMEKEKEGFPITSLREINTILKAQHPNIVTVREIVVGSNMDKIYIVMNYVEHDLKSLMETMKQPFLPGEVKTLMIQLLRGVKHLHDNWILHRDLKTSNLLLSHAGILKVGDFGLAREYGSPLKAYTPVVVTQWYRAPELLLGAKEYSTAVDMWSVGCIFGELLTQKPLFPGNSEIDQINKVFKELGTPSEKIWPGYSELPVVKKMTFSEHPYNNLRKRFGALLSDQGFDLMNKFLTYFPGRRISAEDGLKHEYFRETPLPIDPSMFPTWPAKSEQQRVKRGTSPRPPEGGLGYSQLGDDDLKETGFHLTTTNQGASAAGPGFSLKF

CDK5/CDK5R1 = CDK5/CDK5R1 (Homo sapiens, UniProt Q00535); experiment: NanoBRET live-cell target engagement, CDK5-NanoLuc/CDK5R1 in HEK-293; type: binding; settings: CDK5/CDK5R1, read-out: Inhibition at 10µM (%)
CDK17/Cyclin Y = CDK17/Cyclin Y (Homo sapiens, UniProt Q00537); experiment: NanoBRET live-cell target engagement, CDK17-NanoLuc/Cyclin Y in HEK-293; type: binding; settings: CDK17/Y, read-out: Inhibition at 10µM (%)
CDK19/Cyclin C = CDK19/Cyclin C (Homo sapiens, UniProt Q9BWU1); experiment: NanoBRET live-cell target engagement, NanoLuc-CDK19/Cyclin C in HEK-293; settings: read-out: Inhibition at 10µM (%), CDK19/C
CDK6/Cyclin D1 = CDK6/Cyclin D1 (Homo sapiens, UniProt Q00534); experiment: NanoBRET live-cell target engagement, NanoLuc-CDK6/Cyclin D1 in HEK-293; type: binding; settings: CDK6/D1, read-out: Inhibition at 10µM (%)
CDK15/Cyclin Y = CDK15/Cyclin Y (Homo sapiens, UniProt Q96Q40); experiment: NanoBRET live-cell target engagement, NanoLuc-CDK15/Cyclin Y in HEK-293; type: binding; settings: CDK15/Y, read-out: Inhibition at 10µM (%)
CDK20/Cyclin H = CDK20/Cyclin H (Homo sapiens, UniProt Q8IZL9); experiment: NanoBRET live-cell target engagement, NanoLuc-CDK20/Cyclin H in HEK-293; type: binding; settings: CDK20/H, read-out: Inhibition at 10µM (%)
CDK12/Cyclin K = CDK12/Cyclin K (Homo sapiens, UniProt Q9NYV4); experiment: NanoBRET live-cell target engagement, CDK12-NanoLuc/Cyclin K in HEK-293; type: binding; settings: CDK12/K, read-out: Inhibition at 10µM (%)
CDK4/Cyclin D1 = CDK4/Cyclin D1 (Homo sapiens, UniProt P11802); experiment: NanoBRET live-cell target engagement, NanoLuc-CDK4/Cyclin D1 in HEK-293; type: binding; settings: CDK4/D1; for IC50: read-out: IC50; for inhibition at 10 µM: read-out: Inhibition at 10µM (%)
CDK9/Cyclin K = CDK9/Cyclin K (Homo sapiens, UniProt P50750); experiment: NanoBRET live-cell target engagement, NanoLuc-CDK9/Cyclin K in HEK-293; type: binding; settings: CDK9/K, read-out: Inhibition at 10µM (%)
CDK16/Cyclin Y = CDK16/Cyclin Y (Homo sapiens, UniProt Q00536); experiment: NanoBRET live-cell target engagement, CDK16-NanoLuc/Cyclin Y in HEK-293; type: binding; settings: CDK16/Y, read-out: Inhibition at 10µM (%)
CDK10/Cyclin L2 = CDK10/Cyclin L2 (Homo sapiens, UniProt Q15131); experiment: NanoBRET live-cell target engagement, CDK10-NanoLuc/Cyclin L2 in HEK-293; settings: read-out: Inhibition at 10µM (%), CDK10/L2
CDK11B/Cyclin L2 = CDK11B/Cyclin L2 (Homo sapiens, UniProt P21127); experiment: NanoBRET live-cell target engagement, CDK11B-NanoLuc/Cyclin L2 in HEK-293; type: binding; settings: CDK11b/L2, read-out: Inhibition at 10µM (%)
CDK8/Cyclin C = CDK8/Cyclin C (Homo sapiens, UniProt P49336); experiment: NanoBRET live-cell target engagement, NanoLuc-CDK8/Cyclin C in HEK-293; type: binding; settings: CDK8/C, read-out: Inhibition at 10µM (%)
CDK18/Cyclin Y = CDK18/Cyclin Y (Homo sapiens, UniProt Q07002); experiment: NanoBRET live-cell target engagement, CDK18-NanoLuc/Cyclin Y in HEK-293; type: binding; settings: CDK18/Y, read-out: Inhibition at 10µM (%)
Sequence of CDK18/Cyclin Y (Q07002 whole entry): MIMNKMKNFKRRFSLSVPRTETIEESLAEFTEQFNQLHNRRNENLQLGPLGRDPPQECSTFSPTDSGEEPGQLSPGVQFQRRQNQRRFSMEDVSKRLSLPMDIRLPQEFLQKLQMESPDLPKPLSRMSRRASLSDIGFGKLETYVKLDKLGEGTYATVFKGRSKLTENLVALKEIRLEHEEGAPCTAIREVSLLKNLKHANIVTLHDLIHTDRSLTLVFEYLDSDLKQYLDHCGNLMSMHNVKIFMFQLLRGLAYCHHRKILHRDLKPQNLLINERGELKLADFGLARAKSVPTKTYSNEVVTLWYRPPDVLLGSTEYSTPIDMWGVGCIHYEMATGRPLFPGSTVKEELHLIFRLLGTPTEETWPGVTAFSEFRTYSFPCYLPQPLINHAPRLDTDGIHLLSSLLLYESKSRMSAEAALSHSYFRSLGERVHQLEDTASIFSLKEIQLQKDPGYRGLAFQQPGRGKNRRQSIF
Sequence of CDK18/Cyclin Y (Q8ND76 whole entry partner): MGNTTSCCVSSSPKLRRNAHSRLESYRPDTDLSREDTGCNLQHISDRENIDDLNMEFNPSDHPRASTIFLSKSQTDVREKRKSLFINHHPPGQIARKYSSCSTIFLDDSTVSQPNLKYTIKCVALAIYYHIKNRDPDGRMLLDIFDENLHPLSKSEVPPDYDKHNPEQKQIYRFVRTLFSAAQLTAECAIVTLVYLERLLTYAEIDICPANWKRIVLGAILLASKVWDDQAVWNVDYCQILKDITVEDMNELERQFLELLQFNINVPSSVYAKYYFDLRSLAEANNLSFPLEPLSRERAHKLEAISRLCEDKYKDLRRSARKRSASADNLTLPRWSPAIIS

Sequence of CDK15/Cyclin Y (Q96Q40 whole entry): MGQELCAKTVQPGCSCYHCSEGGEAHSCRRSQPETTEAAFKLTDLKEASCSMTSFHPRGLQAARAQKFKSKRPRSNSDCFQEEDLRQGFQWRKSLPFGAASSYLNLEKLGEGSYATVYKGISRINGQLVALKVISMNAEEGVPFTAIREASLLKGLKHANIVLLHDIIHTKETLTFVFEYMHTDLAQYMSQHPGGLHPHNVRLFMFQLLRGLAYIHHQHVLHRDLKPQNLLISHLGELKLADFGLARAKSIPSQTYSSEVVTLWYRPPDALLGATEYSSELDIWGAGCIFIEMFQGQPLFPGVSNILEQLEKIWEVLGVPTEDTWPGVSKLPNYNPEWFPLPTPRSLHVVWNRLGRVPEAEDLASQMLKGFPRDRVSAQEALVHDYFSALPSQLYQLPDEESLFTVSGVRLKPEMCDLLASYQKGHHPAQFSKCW
Sequence of CDK15/Cyclin Y (Q8ND76 whole entry partner): as the sequence (Q8ND76 whole entry partner) above
Sequence of CDK13/Cyclin K (O75909 whole entry): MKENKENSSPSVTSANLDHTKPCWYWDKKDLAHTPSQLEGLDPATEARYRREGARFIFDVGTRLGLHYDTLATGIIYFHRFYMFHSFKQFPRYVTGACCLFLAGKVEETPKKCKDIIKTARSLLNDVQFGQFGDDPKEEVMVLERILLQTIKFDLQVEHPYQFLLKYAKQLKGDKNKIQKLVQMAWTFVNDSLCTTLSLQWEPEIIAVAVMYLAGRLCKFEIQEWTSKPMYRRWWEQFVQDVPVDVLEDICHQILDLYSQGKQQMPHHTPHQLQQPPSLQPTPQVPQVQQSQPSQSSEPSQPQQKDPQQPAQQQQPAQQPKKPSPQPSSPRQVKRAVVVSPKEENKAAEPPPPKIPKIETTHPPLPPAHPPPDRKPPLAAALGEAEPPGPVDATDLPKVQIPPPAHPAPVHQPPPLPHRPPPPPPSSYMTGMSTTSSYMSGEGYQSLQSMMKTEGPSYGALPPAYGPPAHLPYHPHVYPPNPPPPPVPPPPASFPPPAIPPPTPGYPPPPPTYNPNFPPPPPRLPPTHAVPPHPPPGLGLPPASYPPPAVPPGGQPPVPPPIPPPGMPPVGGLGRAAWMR
Sequence of CDK13/Cyclin K (Q14004 other isoform, or with tags, fused parts or gaps): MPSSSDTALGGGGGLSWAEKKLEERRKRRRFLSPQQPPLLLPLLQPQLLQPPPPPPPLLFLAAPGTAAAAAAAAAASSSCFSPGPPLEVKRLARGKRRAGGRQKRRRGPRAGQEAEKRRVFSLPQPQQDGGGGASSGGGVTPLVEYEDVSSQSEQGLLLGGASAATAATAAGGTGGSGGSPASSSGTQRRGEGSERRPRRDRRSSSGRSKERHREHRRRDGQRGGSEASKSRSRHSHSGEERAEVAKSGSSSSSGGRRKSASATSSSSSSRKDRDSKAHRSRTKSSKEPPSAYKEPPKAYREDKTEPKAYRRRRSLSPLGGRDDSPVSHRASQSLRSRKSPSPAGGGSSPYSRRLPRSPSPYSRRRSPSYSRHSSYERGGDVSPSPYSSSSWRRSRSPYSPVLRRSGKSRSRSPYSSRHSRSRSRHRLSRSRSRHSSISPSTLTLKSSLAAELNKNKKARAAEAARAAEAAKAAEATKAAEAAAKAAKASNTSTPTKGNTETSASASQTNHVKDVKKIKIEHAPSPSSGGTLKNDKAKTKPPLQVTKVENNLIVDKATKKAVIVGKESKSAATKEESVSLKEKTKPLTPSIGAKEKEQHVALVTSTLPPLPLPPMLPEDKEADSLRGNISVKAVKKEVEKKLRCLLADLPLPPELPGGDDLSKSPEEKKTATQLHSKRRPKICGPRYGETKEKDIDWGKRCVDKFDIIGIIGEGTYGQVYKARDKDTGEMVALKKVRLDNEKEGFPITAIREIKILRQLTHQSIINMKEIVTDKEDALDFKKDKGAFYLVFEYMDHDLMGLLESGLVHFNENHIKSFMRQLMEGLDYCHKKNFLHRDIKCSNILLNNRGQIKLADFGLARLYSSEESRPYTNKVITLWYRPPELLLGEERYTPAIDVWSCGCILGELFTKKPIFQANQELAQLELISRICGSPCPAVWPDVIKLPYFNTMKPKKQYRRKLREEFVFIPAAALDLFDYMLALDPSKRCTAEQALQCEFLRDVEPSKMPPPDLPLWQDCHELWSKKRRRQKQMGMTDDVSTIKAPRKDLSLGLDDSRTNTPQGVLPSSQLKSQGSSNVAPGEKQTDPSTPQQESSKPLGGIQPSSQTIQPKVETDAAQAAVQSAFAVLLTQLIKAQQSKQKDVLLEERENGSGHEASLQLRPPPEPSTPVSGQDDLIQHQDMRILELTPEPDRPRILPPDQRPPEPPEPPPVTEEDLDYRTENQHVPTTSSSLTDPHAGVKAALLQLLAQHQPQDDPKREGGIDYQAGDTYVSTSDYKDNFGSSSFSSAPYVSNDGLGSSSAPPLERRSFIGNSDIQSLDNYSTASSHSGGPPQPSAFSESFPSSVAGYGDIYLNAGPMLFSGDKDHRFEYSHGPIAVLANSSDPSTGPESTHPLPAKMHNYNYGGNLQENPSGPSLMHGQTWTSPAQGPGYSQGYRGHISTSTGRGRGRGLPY
Sequence of CDK8/Cyclin C (P49336 whole entry): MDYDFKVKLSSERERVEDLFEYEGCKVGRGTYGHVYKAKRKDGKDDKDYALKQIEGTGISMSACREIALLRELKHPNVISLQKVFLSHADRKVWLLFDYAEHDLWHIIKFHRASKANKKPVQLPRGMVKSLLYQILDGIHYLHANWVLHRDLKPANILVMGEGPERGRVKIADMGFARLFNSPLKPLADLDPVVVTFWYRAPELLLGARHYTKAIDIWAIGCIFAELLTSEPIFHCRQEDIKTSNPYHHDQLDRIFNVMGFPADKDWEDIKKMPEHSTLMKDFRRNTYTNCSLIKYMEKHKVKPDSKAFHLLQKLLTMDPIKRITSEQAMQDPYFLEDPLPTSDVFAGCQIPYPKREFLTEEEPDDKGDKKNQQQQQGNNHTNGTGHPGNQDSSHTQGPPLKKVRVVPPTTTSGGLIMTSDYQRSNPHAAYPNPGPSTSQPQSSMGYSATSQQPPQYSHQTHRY
Sequence of CDK8/Cyclin C (P24863 whole entry partner): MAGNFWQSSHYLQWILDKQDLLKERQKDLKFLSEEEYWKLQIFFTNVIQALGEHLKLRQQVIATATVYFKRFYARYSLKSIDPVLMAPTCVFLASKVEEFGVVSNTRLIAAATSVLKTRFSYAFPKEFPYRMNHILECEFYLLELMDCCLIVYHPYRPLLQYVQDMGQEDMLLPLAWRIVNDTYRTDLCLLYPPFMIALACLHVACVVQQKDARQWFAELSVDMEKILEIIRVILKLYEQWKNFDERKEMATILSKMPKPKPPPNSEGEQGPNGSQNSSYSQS
Sequence of CDK17/Cyclin Y (Q00537 whole entry): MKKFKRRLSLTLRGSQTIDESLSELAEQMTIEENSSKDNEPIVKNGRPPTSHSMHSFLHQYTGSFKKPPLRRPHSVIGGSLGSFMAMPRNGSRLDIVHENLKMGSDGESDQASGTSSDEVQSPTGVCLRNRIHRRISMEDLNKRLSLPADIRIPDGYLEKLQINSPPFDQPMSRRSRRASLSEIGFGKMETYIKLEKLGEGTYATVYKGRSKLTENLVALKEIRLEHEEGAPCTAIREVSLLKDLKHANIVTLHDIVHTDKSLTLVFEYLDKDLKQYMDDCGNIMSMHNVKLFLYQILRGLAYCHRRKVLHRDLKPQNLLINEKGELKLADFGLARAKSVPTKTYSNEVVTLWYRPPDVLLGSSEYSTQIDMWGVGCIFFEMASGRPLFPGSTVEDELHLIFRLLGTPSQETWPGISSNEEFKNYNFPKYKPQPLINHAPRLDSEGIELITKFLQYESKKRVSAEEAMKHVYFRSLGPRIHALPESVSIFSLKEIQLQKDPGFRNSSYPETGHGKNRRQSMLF
Sequence of CDK17/Cyclin Y (Q8ND76 whole entry partner): as the sequence (Q8ND76 whole entry partner) above
Sequence of CDK10/Cyclin L2 (Q15131 whole entry): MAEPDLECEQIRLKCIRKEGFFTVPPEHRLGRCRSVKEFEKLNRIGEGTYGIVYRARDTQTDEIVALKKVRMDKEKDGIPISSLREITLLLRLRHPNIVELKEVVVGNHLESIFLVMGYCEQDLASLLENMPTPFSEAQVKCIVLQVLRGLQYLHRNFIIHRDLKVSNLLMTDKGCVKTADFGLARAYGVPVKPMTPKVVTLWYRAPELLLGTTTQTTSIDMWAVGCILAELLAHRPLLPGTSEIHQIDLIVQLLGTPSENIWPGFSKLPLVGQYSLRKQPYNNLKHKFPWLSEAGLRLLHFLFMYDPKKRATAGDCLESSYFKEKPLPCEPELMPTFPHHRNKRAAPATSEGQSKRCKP

For `CC(C)c1cnn2c(NCc3ccccc3)cc(NC[C@H]3CCNC[C@@H]3O)nc12` [CT7001], the inhibition at 10 µM (CDK13/Cyclin K; average) was 34.1%, the inhibition at 10 µM (CDK13/Cyclin K; experiment 1) was 32.9% and the inhibition at 10 µM (CDK13/Cyclin K; experiment 2) was 35.2%. For the same compound, the inhibition at 10 µM (CDK11A/Cyclin L2; average) was 43.5%, the inhibition at 10 µM (CDK11A/Cyclin L2; experiment 1) was 43.2% and the inhibition at 10 µM (CDK11A/Cyclin L2; experiment 2) was 43.8%. It also gave an inhibition at 10 µM (CDK5/CDK5R1; average) of 76.3%, an inhibition at 10 µM (CDK5/CDK5R1; experiment 1) of 78.3% and an inhibition at 10 µM (CDK5/CDK5R1; experiment 2) of 74.3%. The inhibition at 10 µM (CDK17/Cyclin Y; average) was 72%, the inhibition at 10 µM (CDK17/Cyclin Y; experiment 1) was 77.7% and the inhibition at 10 µM (CDK17/Cyclin Y; experiment 2) was 66.3%. It also gave an inhibition at 10 µM (CDK19/Cyclin C; average) of 7.2%, an inhibition at 10 µM (CDK19/Cyclin C; experiment 1) of 16% and an inhibition at 10 µM (CDK19/Cyclin C; experiment 2) of -1.6%. For the same compound, the inhibition at 10 µM (CDK6/Cyclin D1; average) was 12.9%, the inhibition at 10 µM (CDK6/Cyclin D1; experiment 1) was 20.2% and the inhibition at 10 µM (CDK6/Cyclin D1; experiment 2) was 5.6%. For the same compound, the inhibition at 10 µM (CDK15/Cyclin Y; average) was 76.4%, the inhibition at 10 µM (CDK15/Cyclin Y; experiment 1) was 72.2% and the inhibition at 10 µM (CDK15/Cyclin Y; experiment 2) was 80.6%. For the same compound, the inhibition at 10 µM (CDK20/Cyclin H; experiment 1) was 27.8%, the inhibition at 10 µM (CDK20/Cyclin H; experiment 2) was 33.8% and the inhibition at 10 µM (CDK12/Cyclin K; average) was 43.6%. It also gave an inhibition at 10 µM (CDK12/Cyclin K; experiment 1) of 42.1%, an inhibition at 10 µM (CDK12/Cyclin K; experiment 2) of 45.2% and an IC50 (CDK4/Cyclin D1; average (± SEM where n=3)) of 42 ± 9 nM. For the same compound, the inhibition at 10 µM (CDK4/Cyclin D1; average) was 18.1%, the IC50 (CDK4/Cyclin D1; experiment 1) was 32 nM and the inhibition at 10 µM (CDK4/Cyclin D1; experiment 1) was 42.3%. The IC50 (CDK4/Cyclin D1; experiment 2) was 33 nM, the inhibition at 10 µM (CDK4/Cyclin D1; experiment 2) was -6% and the IC50 (CDK4/Cyclin D1; experiment 3) was 60 nM. It also gave an inhibition at 10 µM (CDK9/Cyclin K; average) of 85.7%, an inhibition at 10 µM (CDK9/Cyclin K; experiment 1) of 85% and an inhibition at 10 µM (CDK9/Cyclin K; experiment 2) of 86.4%. For the same compound, the inhibition at 10 µM (CDK16/Cyclin Y; experiment 1) was 70.8%, the inhibition at 10 µM (CDK16/Cyclin Y; experiment 2) was 56.9% and the inhibition at 10 µM (CDK10/Cyclin L2; average) was 40.4%. The inhibition at 10 µM (CDK10/Cyclin L2; experiment 1) was 38.5%, the inhibition at 10 µM (CDK10/Cyclin L2; experiment 2) was 42.3% and the inhibition at 10 µM (CDK11B/Cyclin L2; average) was 45.5%. The inhibition at 10 µM (CDK11B/Cyclin L2; experiment 1) was 49%, the inhibition at 10 µM (CDK11B/Cyclin L2; experiment 2) was 41.9% and the inhibition at 10 µM (CDK8/Cyclin C; average) was 4.3%. It also gave an inhibition at 10 µM (CDK8/Cyclin C; experiment 1) of 5.3%, an inhibition at 10 µM (CDK8/Cyclin C; experiment 2) of 3.3% and an inhibition at 10 µM (CDK18/Cyclin Y; average) of 76.2%. It also gave an inhibition at 10 µM (CDK18/Cyclin Y; experiment 1) of 75.7% and an inhibition at 10 µM (CDK18/Cyclin Y; experiment 2) of 76.7%.
